In PubChem BioAssay (NCI):
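A five-concentration, 48-hour dose response in 96-well plates underlies each endpoint, interpolated linearly between surrounding concentrations. At the GI50, growth is halved. TGI is the concentration that stops growth completely.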

Experiments:
Experiment in all cases: NCI tumour cell line growth inhibition, 48 h
DU-145 prostate = test system: DU-145 prostate
HCT-116 colon = test system: HCT-116 colon
K-562 leukemia = test system: K-562 leukemia
MCF7 breast = test system: MCF7 breast
NCI-H23 lung = test system: NCI-H23 lung
NCI-H460 lung = test system: NCI-H460 lung
NCI-H522 lung = test system: NCI-H522 lung
PC-3 prostate = test system: PC-3 prostate
SK-MEL-2 melanoma = test system: SK-MEL-2 melanoma
SK-OV-3 ovarian = test system: SK-OV-3 ovarian

Row | SMILES | GI50 (DU-145 prostate) [µM] | TGI (DU-145 prostate) [µM] | GI50 (HCT-116 colon) [µM] | TGI (HCT-116 colon) [µM] | GI50 (K-562 leukemia) [µM] | TGI (K-562 leukemia) [µM] | GI50 (MCF7 breast) [µM] | TGI (MCF7 breast) [µM] | GI50 (NCI-H23 lung) [µM] | TGI (NCI-H23 lung) [µM] | GI50 (NCI-H460 lung) [µM] | TGI (NCI-H460 lung) [µM] | GI50 (NCI-H522 lung) [µM] | TGI (NCI-H522 lung) [µM] | GI50 (PC-3 prostate) [µM] | TGI (PC-3 prostate) [µM] | GI50 (SK-MEL-2 melanoma) [µM] | TGI (SK-MEL-2 melanoma) [µM] | GI50 (SK-OV-3 ovarian) [µM] | TGI (SK-OV-3 ovarian) [µM]
1 | COc1ccc2c(c1)C(=O)/C(=C/c1cccc(OCC(=O)c3ccccc3)c1)O2 | 3.9 | 13.7 | 1.53 | 2.96 | 0.722 | 2.13 | 4.2 | 33.7 | 4.37 | 15.8 | 14.4 | 36 | 1.62 | 3.26 | 4.44 | 17.4 | 16.7 | 30.5 | 15.8 | 29.2
2 | Cc1cn(-c2cc(NC(=O)c3cccc(C#Cc4cccc5[nH]nc(N)c45)c3)cc(C(F)(F)F)c2)cn1 | 10.3 | 40.7 | 2.62 | 18.8 | – | > 100 | 3.6 | > 100 | 4.61 | > 100 | 4.13 | 16.7 | 5.48 | 49 | 6.46 | 26.7 | 2.27 | 8.14 | 22.2 | > 100
3 | CC(C)(C)c1cc([N+](=O)[O-])cc([N+](=O)[O-])c1O | – | > 10 | – | > 10 | – | > 10 | – | > 10 | – | > 10 | – | > 10 | – | > 10 | – | > 10 | – | > 10 | – | > 10
4 | CCOc1cccc(/C=N/NC(=O)c2cccc(Nc3ccnc(C(F)(F)F)c3)c2)c1O | 1.1 | > 47.3 | 0.477 | > 69.4 | 1.32 | 30.6 | 0.945 | 21.1 | 1.62 | 20.8 | 1.17 | 9.53 | 4.54 | 32.5 | 3.28 | > 92.8 | 8.5 | 39.9 | 0.796 | 33.1
5 | CC(=O)OC1OC([C@H]2c3cccc(O)c3C(=O)c3c(O)cc(C)cc32)C(O)C(O)C1O (some centres not stated) | 0.281 | 12.5 | < 0.01 | 1.18 | 0.203 | > 33.5 | 0.287 | 0.803 | < 0.0161 | – | 0.105 | 1.41 | 0.0479 | 19.9 | – | 1.09 | 0.0962 | 2.63 | 0.0576 | 12.3
6 | Nc1ncnc2c1ncn2C1C=C(CO)C(O)C1O (configuration not stated) | – | 35.8 | – | 12.6 | – | 39.6 | – | > 100 | – | 35.4 | – | 34.8 | – | 35.6 | – | 60.5 | – | > 80.4 | – | 44.2
7 | Cc1cc(N(CC(C)Br)CC(C)Br)ccc1N=Nc1ccccc1C(=O)O (configuration not stated) | – | 20 | – | 20.3 | – | 4.8 | – | 7.67 | – | 18.1 | – | 11.7 | – | 9.02 | – | 30 | – | 10.2 | – | 39.7
8 | COc1ccc(C(C#N)NC23CC4CC(CC(C4)C2)C3)cc1 (configuration not stated) | – | > 100 | – | > 100 | – | > 100 | – | > 100 | – | > 100 | – | > 100 | – | > 100 | – | > 100 | – | > 100 | – | > 100
9 | O=C(/C=C/c1ccccc1)Nc1ncc(Cc2ccccc2Cl)s1 | 0.41 | > 100 | 0.375 | > 100 | 0.223 | > 100 | 0.311 | > 100 | 0.708 | > 100 | 0.333 | > 100 | 0.474 | > 100 | 0.409 | > 100 | 1.25 | > 100 | 0.79 | > 100
10 | CS(=O)(=O)CCNCc1coc(-c2ccc3ncnc(Nc4ccc(OCc5ccccc5)cc4)c3c2)c1 | 3.75 | > 25 | 3.88 | 7.53 | 4.54 | 11 | 3.77 | 12.3 | 9.18 | > 25 | 3.86 | 8.5 | 3.32 | 6.9 | 8.95 | > 25 | 4.55 | 8.92 | 1.71 | > 16.2
11 | O=C(O)CSCCc1ccccc1 | – | > 100 | – | > 100 | – | > 100 | – | > 100 | – | > 100 | – | > 100 | – | > 100 | – | > 100 | – | > 100 | – | > 100
12 | CSC(SC)(C(=O)O)c1cc(-c2c(Cl)cccc2Cl)no1 | – | > 100 | – | > 100 | – | > 100 | – | > 100 | – | 79 | – | > 100 | – | 80.3 | – | > 100 | – | > 100 | – | > 100
13 | Oc1ccc2ccccc2c1N=Nc1cccc2ccccc12 | – | > 100 | – | > 100 | – | > 100 | – | > 100 | – | > 100 | – | > 100 | – | > 100 | – | > 100 | – | > 100 | – | > 100
14 | CC/C=C\C[C@H]1CC=C2C(=O)C=C[C@@H]2CC=CCCCC(=O)O[C@@H](CCCCC)CC=C2C(=O)C=C[C@@H]2CC=CCCCC(=O)O[C@@H](CCCCC)CC=C2C(=O)C=C[C@@H]2CC=CCCCC(=O)O[C@@H](CCCCC)CC=C2C(=O)C=C[C@@H]2CC=CCCCC(=O)O1 | 2.68 | > 7.9 | 1.3 | 3.06 | 2.5 | > 7.9 | 1.46 | > 7.9 | 2.34 | > 7.9 | 2.45 | > 7.9 | 1.76 | 4.48 | 2.38 | > 7.9 | 2.21 | 5.38 | 7.64 | > 7.9
